Test results from ChEMBL document CHEMBL1152564, “Antagonists of the human A(2A) receptor. Part 6: Further optimization of pyrimidine-4-carboxamides” (Bioorg Med Chem, 2009).

How the values were obtained:
Assay type in all cases: ADME, organism-based
[1] = Volume of distribution in rat; details: in vivo
[2] = Oral bioavailability in rat; details: in vivo
[3] = Terminal half life in rat; details: in vivo, read-out: beta t1/2 (converted)
[4] = Tmax in rat plasma
[5] = Clearance in rat; details: in vivo

- Vd [1]: 0.7 L/kg
- bioavailability [2]: 3%
- half-life [3]: 180 min
- Tmax [4]: 15 min
- clearance [5]: 32.5 mL/min/kg
Structure (SMILES): Cc1cccc(CNC(=O)c2cc(-c3ccc(C)o3)nc(N)n2)n1
